From ChEMBL document CHEMBL4052696, “Varic acid analogues from fungus as PTP1B inhibitors: Biological evaluation and structure-activity relationships” (Bioorg Med Chem Lett, 2017)

Experiments:
[1] = target: T1, Tyrosine-protein phosphatase non-receptor type 1 (Homo sapiens, UniProt P18031); assay: Inhibition of PTP1B (unknown origin) using p-nitrophenyl phosphate substrate incubated for 30 mins
T1 sequence (P18031 whole entry): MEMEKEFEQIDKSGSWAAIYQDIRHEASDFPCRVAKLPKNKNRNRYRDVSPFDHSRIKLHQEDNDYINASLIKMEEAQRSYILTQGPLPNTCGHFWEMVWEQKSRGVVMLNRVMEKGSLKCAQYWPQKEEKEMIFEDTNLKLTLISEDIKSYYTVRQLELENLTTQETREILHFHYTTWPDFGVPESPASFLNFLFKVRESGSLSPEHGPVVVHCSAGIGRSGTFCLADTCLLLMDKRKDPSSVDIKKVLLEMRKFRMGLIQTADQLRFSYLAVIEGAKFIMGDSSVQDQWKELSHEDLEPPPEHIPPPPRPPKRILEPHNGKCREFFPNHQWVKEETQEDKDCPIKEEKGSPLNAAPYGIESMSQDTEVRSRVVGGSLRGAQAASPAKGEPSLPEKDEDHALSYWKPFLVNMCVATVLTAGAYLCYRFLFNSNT

[2] = target: Receptor-type tyrosine-protein phosphatase F (Homo sapiens, UniProt P10586); assay: Inhibition of PTPLAR (unknown origin) using p-nitrophenyl phosphate substrate incubated for 30 mins
Chain of Receptor-type tyrosine-protein phosphatase F (P10586 whole entry): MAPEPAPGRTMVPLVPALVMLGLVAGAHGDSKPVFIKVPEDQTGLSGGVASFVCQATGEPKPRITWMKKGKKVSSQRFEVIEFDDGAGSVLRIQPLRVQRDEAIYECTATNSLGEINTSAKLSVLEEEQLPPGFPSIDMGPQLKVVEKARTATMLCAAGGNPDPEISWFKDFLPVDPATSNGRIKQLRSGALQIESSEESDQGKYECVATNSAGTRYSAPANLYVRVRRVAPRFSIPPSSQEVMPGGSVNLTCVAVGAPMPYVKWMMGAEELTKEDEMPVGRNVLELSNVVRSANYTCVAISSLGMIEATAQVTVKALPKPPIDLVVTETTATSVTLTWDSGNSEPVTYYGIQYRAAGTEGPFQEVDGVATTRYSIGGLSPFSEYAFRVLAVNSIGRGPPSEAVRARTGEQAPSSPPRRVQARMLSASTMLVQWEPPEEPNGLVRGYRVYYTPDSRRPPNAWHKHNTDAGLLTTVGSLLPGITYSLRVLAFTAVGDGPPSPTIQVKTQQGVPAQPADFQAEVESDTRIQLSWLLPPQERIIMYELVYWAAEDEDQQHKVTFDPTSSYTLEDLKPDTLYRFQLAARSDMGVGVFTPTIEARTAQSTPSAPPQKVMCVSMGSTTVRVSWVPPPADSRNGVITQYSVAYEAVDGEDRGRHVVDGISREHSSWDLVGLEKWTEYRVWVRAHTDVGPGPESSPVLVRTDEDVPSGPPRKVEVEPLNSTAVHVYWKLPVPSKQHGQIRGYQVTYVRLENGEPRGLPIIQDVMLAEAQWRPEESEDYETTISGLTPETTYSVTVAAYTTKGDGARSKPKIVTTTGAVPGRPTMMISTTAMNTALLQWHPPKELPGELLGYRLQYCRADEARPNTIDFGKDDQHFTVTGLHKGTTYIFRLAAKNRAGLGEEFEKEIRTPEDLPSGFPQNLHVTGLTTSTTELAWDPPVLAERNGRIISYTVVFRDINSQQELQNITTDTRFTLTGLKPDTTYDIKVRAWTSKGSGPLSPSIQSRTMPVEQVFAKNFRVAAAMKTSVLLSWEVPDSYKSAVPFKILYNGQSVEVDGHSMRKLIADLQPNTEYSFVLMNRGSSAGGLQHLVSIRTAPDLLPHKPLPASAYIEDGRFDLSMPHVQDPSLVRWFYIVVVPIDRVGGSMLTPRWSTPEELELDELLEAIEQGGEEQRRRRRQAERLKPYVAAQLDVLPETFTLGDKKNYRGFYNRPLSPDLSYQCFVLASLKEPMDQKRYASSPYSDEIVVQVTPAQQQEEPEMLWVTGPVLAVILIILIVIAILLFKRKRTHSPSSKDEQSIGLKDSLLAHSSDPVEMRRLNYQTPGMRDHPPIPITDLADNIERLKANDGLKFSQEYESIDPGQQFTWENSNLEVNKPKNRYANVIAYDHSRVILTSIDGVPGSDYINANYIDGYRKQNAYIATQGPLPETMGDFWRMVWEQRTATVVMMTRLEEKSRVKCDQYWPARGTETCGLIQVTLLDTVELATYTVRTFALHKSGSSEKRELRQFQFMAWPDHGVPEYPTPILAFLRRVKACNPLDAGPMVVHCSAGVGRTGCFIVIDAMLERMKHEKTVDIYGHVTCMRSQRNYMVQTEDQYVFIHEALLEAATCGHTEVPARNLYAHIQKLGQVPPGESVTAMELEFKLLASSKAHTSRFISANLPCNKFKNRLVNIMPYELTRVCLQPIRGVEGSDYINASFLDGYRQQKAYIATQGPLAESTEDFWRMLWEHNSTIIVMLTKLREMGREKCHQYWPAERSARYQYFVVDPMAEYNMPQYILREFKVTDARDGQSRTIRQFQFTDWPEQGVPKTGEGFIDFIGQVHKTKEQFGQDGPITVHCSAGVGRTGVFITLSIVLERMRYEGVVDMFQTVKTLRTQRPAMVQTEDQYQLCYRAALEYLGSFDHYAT

[3] = target: T2, Tyrosine-protein phosphatase non-receptor type 11 (Homo sapiens, UniProt Q06124); assay: Inhibition of SHP2 (unknown origin) using p-nitrophenyl phosphate substrate incubated for 30 mins
T2 sequence (Q06124 whole entry): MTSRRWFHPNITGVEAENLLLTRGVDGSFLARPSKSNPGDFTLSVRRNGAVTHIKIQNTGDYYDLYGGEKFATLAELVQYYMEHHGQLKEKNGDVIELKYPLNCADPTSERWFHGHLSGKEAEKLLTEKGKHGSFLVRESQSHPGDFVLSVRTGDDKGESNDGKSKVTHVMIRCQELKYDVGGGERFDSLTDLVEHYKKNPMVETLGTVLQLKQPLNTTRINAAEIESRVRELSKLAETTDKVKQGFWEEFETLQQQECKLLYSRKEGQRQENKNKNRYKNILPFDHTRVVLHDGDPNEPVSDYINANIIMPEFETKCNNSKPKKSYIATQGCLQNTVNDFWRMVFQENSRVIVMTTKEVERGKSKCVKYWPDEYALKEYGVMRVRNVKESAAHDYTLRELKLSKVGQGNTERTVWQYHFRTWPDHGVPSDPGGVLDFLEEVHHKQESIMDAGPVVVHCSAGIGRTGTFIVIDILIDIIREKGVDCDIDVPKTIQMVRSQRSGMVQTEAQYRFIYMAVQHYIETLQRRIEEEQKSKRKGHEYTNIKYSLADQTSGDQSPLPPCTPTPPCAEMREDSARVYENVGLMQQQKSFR

[4] = target: T3, Tyrosine-protein phosphatase non-receptor type 2 (Homo sapiens, UniProt P17706); assay: Inhibition of TCPTP (unknown origin) using p-nitrophenyl phosphate substrate incubated for 30 mins
T3 sequence (P17706 whole entry): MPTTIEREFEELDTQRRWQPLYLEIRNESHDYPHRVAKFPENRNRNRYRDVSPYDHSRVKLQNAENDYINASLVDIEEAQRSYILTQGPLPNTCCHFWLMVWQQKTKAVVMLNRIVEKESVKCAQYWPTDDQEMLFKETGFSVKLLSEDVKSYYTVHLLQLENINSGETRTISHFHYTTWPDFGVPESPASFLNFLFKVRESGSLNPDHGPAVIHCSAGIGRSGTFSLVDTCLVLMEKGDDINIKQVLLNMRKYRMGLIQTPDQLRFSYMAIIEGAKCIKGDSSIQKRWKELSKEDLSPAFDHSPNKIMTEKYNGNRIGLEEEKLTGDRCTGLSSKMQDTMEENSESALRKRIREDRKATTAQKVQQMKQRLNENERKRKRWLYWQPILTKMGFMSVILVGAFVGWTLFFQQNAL

Rattus norvegicus [5] = assay: Toxicity in normal Wistar rat assessed as induction of hypoglycemia at 10 mg/kg, ip dosed 30 mins before insulin injection and measured 30 mins post insulin injection by glucose-oxidase assay; type: organism-based; conditions: in vivo, 0.5 h
Rattus norvegicus [6] = assay: Toxicity in type 2 diabetic Wistar rat assessed as induction of hypoglycemia at 10 mg/kg, ip dosed 30 mins before insulin injection and measured 30 mins post insulin injection by glucose-oxidase assay; type: organism-based; conditions: in vivo, 0.5 h

IC50 [1] [µM] | IC50 [2] [µM] | IC50 [3] [µM] | IC50 [4] [µM] | Compound | Activity (Rattus norvegicus [5]) | Activity (Rattus norvegicus [6])
1.58 | > 20 | 12.6 | > 20 | CCCc1cc(O)cc(O)c1C(=O)O |  | 
0.72 | > 20 | 15 | > 20 | CCCc1cc(O)cc(OC(=O)c2c(O)cc(O)cc2CCC)c1 |  | 
0.51 | > 20 | > 20 | > 20 | CCCc1cc(OC(=O)c2c(O)cc(O)cc2CCC)cc(O)c1C(=O)O |  | 
0.17 | > 20 | 2.73 | 17.7 | CCCc1cc(OC(=O)c2c(O)cc(OC(=O)c3c(O)cc(O)cc3CCC)cc2CCC)cc(O)c1C(=O)O | Non-Toxic | Non-Toxic
4.27 | > 20 | 0.18 | 4.74 | CCC/C=C/C=C/CCc1cc(O)cc(O)c1C(=O)O |  | 
> 20 | > 20 | > 20 | > 20 | CCCc1cc(OC)cc(OC)c1C(=O)O |  | 
